# Read-outs that look alike come from different tables or passages of the source.
# B1: Cyanovirin-N: 11 kD protein originally isolated from the cyanobacteria Nostoc ellipsosporum, binds gp120 (protein, listed as Nostoc ellipsosporum)
# chain: LGKFSQTCYNSAIQGSVLTSTCERTNGGYNTSSIDLNSVIENVDGSLKWQPSNFIETCRNTQLAGSSELAAECKTRAQQFVSTKINLDDHIANIDGTLKYE
# modifications: DISULFID (8)..(22) disulfide bond
# Assays:
# HIV-1 strain BaL [1] = conditions: P4-CCR5 cells (Gopi et al., 2008); read-out: IC50, inhibition of infection by HIV-1 BaL; cited from earlier work
# P4-CCR5 cells [2] = experiment: In vitro cytotoxicity, MTT assay; type: cell-based; conditions: concentrations as high as 0.1 mg/ml, 2 hours
# Description: P4-CCR5 cells were seeded at a density of 4×10^4 cells/well in a 96 well plate approximately 18 hours prior to experiment. […] The cells were subsequently washed and assessed for viability using a 3-(4,5-dimethylthiazol-2-yl)-2,5-diphenyltetrazolium bromide (MTT) assay of viability (previously described in Krebs et al. (1999). Concentrations were tested in triplicate in two independent assays.
# sCD4 = target: T1, sCD4 (Homo sapiens, UniProt P01730); experiment: SPR direct binding of peptide to immobilized sCD4
# T1 construct: made in house; host or cells: CHO cells
# 17b = experiment: SPR direct binding of peptide to immobilized 17b
# HIV-1 strain BaL [3] = experiment: Inhibition of HIV-1 BaL infection of P4-CCR5 cells (whole virus assay); type: cell-based
# Description: Infectivity remaining is expressed relative to mock-treated, HIV-1-infected cells.
# gp120 binding to sCD4 = target: T2, gp120 binding to sCD4 (Human immunodeficiency virus type 1 group M subtype B, UniProt P35961); design: species or system HIV-1; conditions: in the presence of HNG-156
# T2 construct: made in house; host or cells: sCD4: CHO cells; gp120 (if YU2): Drosophila S2 cells
# HIV-1 92UG037-08 gp120 = experiment: SPR direct binding to immobilized 92UG037-08 gp120; conditions: HIV-1 env 92UG037-08 (A)
# [4] = target: T3, YU2 gp120 binding to sCD4 (Human immunodeficiency virus type 1 group M subtype B, UniProt P35961); experiment: SPR competition: inhibition of YU2 gp120 binding to immobilized sCD4; design: species or system HIV-1; conditions: 100 nM YU2 gp120, peptide 10 to 600 nM
# T3 construct: made in house; host or cells: gp120: Drosophila S2 cells; sCD4: CHO cells
# Description: (§1) In one experiment, antibodies b6, b12, or F105 were immobilized on a biosensor CM5 chip.
# gp120 binding to 2G12 = target: T4, gp120 binding to 2G12 (Human immunodeficiency virus type 1 group M subtype B, UniProt P35961); experiment: Effect on gp120 binding to antibody 2G12; design: species or system HIV-1
# T4 construct: with a constant concentration (100 nM) of YU2 gp120
# HIV-1 strain BaL [5] = experiment: Combination of HNG-156 and cyanovirin-N against HIV-1 BaL infection of P4-CCR5 cells; type: cell-based; conditions: for IC50, viral infectivity inhibition: HIV-1 BaL, P4-CCR5 cells, combination at constant ratio 1:8.2 by weight, plotted against first-named component
# Description: Dextran sulfate (DS) was used as a comparative. […] Combination Indexes (CIs) were calculated using the CalcuSyn software. […] CI values were calculated for 50, 75, and 90% HIV inhibition.
# YU2 gp120 binding to 17b = target: T5, YU2 gp120 binding to 17b (Human immunodeficiency virus type 1 group M subtype B, UniProt P35961); experiment: SPR competition: inhibition of YU2 gp120 binding to immobilized 17b; design: species or system HIV-1; conditions: 100 nM YU2 gp120, peptide 10 to 600 nM
# T5 construct: made in house; host or cells: gp120: Drosophila S2 cells
# Description: as §1
# HIV-1 YU2 gp120 = target: T6, HIV-1 YU2 gp120 (Human immunodeficiency virus type 1 group M subtype B, UniProt P35961); experiment: SPR direct binding to immobilized YU2 gp120
# T6 construct: made in house; host or cells: Drosophila S2 cells
# Description: All surface plasmon resonance experiments (SPR) were performed on a BIA3000 optical biosensor (Biocore, Inc., Uppsala, Sweden). […] For direct binding experiments, YU2 gp120 was immobilized on the surface (˜4000RU); peptide analytes in PBS buffer were passed over the surface at a flow rate of 50 μL/min. with 5 minute association phase and 5 minute dissociation phase. […] The indicated analytes were passed over the surfaces at a flow rate of 50 μL/minute, with 2.5 minute association phase and 2.5 minute dissociation phase.
# Data analysis was performed using BIAEvaluation® 4.0 software (Biacore Inc., NJ). The responses of a buffer injection and responses from the control surface to which the mAb 2B6R was immobilized, were subtracted to account for nonspecific binding. Experimental data were fitted to a simple 1:1 Langmuir binding model with a parameter included for mass transport. The average kinetic parameters (association [ka] and dissociation [kd] rates) generated from a minimum of four datasets were used to define equilibrium association (KA) and dissociation constants (KD).
# P4-CCR5 cells [6] = conditions: at concentrations corresponding to IC50 values; cited from earlier work
molecule,measurement,setting,value
"CC[C@H](C)[C@H](NC(=O)[C@@H](N)CCCNC(=N)N)C(=O)N[C@@H](CC(N)=O)C(=O)N[C@@H](CC(N)=O)C(=O)N[C@H](C(=O)N1CCC[C@H]1C(=O)N[C@@H](Cc1c[nH]c2ccccc12)C(=O)N[C@@H](CO)C(=O)N[C@@H](CCC(=O)O)C(=O)N[C@@H](C)C(=O)N[C@@H](CCSC)C(=O)N[C@@H](CCSC)C(=O)O)[C@@H](C)CC [12p1, reference compound]",IC50,HIV-1 strain BaL [1],48000 nM
CC[C@H](C)[C@H](NC(=O)[C@@H](N)CCCNC(=N)N)C(=O)N[C@@H](CC(N)=O)C(=O)N[C@@H](CC(N)=O)C(=O)N[C@H](C(=O)N1C[C@@H](n2cc([C]34[CH]5[CH]6[CH]7[CH]3[Fe]6754389%10[CH]4[CH]3[CH]8[CH]9[CH]4%10)nn2)C[C@H]1C(=O)N[C@@H](Cc1c[nH]c2ccccc12)C(=O)N[C@@H](CO)C(=O)N[C@@H](CCC(=O)O)C(=O)N[C@@H](C)C(=O)N[C@@H](CCSC)C(=O)N[C@@H](CCSC)C(N)=O)[C@@H](C)CC (some centres unmarked) [HNG-156],effect on P4-CCR5 cell viability,P4-CCR5 cells [2],no effect
same,direct binding to sCD4,sCD4,no direct binding
same,direct binding to 17b,17b,no direct binding
same,more effective than HNG-105 in inhibiting infection,HIV-1 strain BaL [3]; HIV-1 BaL,approximately 15 fold
same,reduction of the affinity of CD4,gp120 binding to sCD4,reduced by two orders of magnitude
same,Kd,HIV-1 92UG037-08 gp120,16.3 nM
same,ka,HIV-1 92UG037-08 gp120,106000 M⁻¹ s⁻¹
same,inhibition of binding of gp120 to sCD4 surface,[4],complete inhibition
same,effect on the binding of 2G12,gp120 binding to 2G12,did not show any effect
same,"IC50, viral infectivity inhibition",HIV-1 strain BaL [5],0.213 microgram/milliter
same,inhibition of binding of gp120 to 17b surface,YU2 gp120 binding to 17b,complete inhibition
same,kd,"HIV-1 YU2 gp120; HIV-1 env YU2, Table 1",0.000955 s⁻¹
same,affinity higher than HNG-105's affinity,HIV-1 YU2 gp120; YU2 gp120,roughly 3 fold
RINNIPWSEAMM [HNG-113],impact on cell viability,P4-CCR5 cells [6],no or minimal impact
same,IC50,HIV-1 strain BaL [1],156 nM
RINNIPWSEAMM [HNG-124],impact on cell viability,P4-CCR5 cells [6],no or minimal impact
same,IC50,HIV-1 strain BaL [1],418 nM
RINNIPWSEAMM [HNG-137],impact on cell viability,P4-CCR5 cells [6],no or minimal impact
same,IC50,HIV-1 strain BaL [1],610 nM
dextran sulfate [DS],IC50,HIV-1 strain BaL [3]; result of one trial,9800 nM
same,"IC50, inhibition of infection by HIV-1 BaL",HIV-1 strain BaL [3]; result of one trial,4.9 µg/mL
same,"IC50, viral infectivity inhibition",HIV-1 strain BaL [5],0.900 microgram/milliter
B1,improvement in the efficacy of CV-N in viral inhibition upon addition of HNG-156,HIV-1 strain BaL [5],~10 fold
same,"IC50, viral infectivity inhibition",HIV-1 strain BaL [5],0.026 microgram/milliter
same,EC50 Dm,HIV-1 strain BaL [5]; dose at which 50% neutralization occurs,0.045 µg/mL

# — patent publication US20150011483A1, “Inhibition of HIV-1 Infection by Potent Metallocene Conjugated Peptide Through Conformational Entrapment of Envelope GP120” (priority 2007, published 2015)
